# Entries after “also recorded” stand apart in the source; their conditions may differ. Where a name gives a salt, the structure may show the parent alone.
# Columns and labels:
# warunasubi = test: Experiment 1 foliar application to naturally growing weeds; assay type: in vivo, Solanum carolinensis L.; conditions: 4 months
# From the text: (§1) The detail of the assessment made in the following Experiments of the invention was as follows:
# (§2) Four months after treatment, evaluation was made for inhibition of reproduction expressed in terms of symbols ranging from (-) to (+++) where (-) means no reproduction, namely complete suppression of reproduction, (±) remarkable suppression of reproduction; (+) considerable suppression of reproduction; (++) medium supprestion of reproduction; and (+++) no suppression of reproduction.
# (§3) The compounds of the invention and other compounds for comparison listed in Table 3 were diluted to prescribed concentrations and sprayed to naturally growing weeds by foliar application in an amount of 150 liter per 10 are.
# (§4) 0.1% of octylphenyl polyoxyethanol was added as a surfactant.
# (§5) The killing index (0, no effect, 5, death) after 21 days, and the reproduction-inhibiting effect (-, no reproduction; +++, maximum reproduction) after 2 months (manna grass and cockspar grass) and 4 months (other weeds) were determined.
# kiichigo = test: Experiment 3 foliar application to naturally growing shrubs; assay type: in vivo, Rubus palmatsu Thunb. forma coptophyllus Makino
# From the text: as §1, §2
# (§6) The compounds of the invention and other compounds listed in Table 5. were diluted to prescribed concentrations and sprayed onto naturally growing shrubs by foliar application in an amount of 150 liter per 10 are.
# (§7) 0.1% of octylphenyl polyoxyethanol was added as the surfactant. The killing index (0, no effect; 5, death) after 1 month and 3 months, and the reproduction-inhibiting effect (-, no reproduction; +++, maximum reproduction) after 3 months were determined.
# hedge bindweed = test: Experiment 1 foliar application to naturally growing weeds; assay type: in vivo, Calystegis hederacea Wall.; conditions: 4 months
# From the text: as §1, §2, §3, §4, §5
# purple nutsedge = test: as above; assay type: in vivo, Cyperus rotundus L.; conditions: 4 months
# From the text: as §1, §2, §3, §4, §5
# manna grass = test: as above; assay type: in vivo, Digitaria adsceudes Henr.; conditions: for Reproduction-inhibiting effect: 2 months; for Killing index of Upperground parts: 21 days
# From the text: as §1, §2, §3, §4, §5
# lace shrub = test: Experiment 3 foliar application to naturally growing shrubs; assay type: in vivo, Stephanandra incisa Zabel; conditions: for Reproduction-inhibiting: after 3 months
# From the text: as §1, §2, §6, §7
# kumaichigo = test: Experiment 2 foliar application in Japanese cypress afforested land; assay type: in vivo, Rubus crataegifolius Bunge; conditions: 0.125%; after 30 days; monosodium salt
# Experimental: as §1
# (§8) The compounds of the invention and other compounds listed in Table 4. were diluted to prescribed concentrations and sprayed to shrubs by foliar application in a Japanese cypress afforested land in an amount of 150 liter per 10 are.
# (§9) After 30 days and 3 months, the killing index (0, no effect; 5, death) was determined.
# (§10) The heights of plants were 50-70 cm. for Japanese cypress, about 50 cm. for chestnut, 50-90 cm. for miyakozasa, about 100 cm. for eulalia and 70-100 cm. for kumaichigo, respectively.
# eulalia = test: as above; assay type: in vivo, Miscanthus sinensis Andress.; parameters: key: 0 = no effect, 5 = death
# Experimental: as §1, §8, §9, §10
# yabugarashi = test: Experiment 1 foliar application to naturally growing weeds; assay type: in vivo, Cayratia japonica Houtt.; conditions: 4 months
# From the text: as §1, §2, §3, §4, §5
# water hyacinth = test: Experiment 5 foliar application to water hyacinths; assay type: in vivo, Eichhornia crassipes Solms; conditions: 3 months
# From the text: as §1, §2
# Water was placed in 20 cm.×30 cm. plastic vessels and a liquid fertilizer was added thereto. Two water hyacinths were floated in each vessel.
# 0.1 or 0.2% aqueous solutions of each of the compounds of the invention listed in Table 7 were sprayed by foliar application in an amount of 100 liter per 10 are. As a surfactant, 0.1% of octylphenyl polyoxyethanol was added.
# The killing index (0, no effect; 5, death) after 21 days and 3 months, and the reproduction-inhibiting effect (-, no reproduction; +++, maximum reproduction) after 3 months were determined.
# white clover = test: Experiment 1 foliar application to naturally growing weeds; assay type: in vivo, Trifolium repens L.; conditions: for Reproduction-inhibiting effect: 4 months
# From the text: as §1, §2, §3, §4, §5
# Japanese bush cranberry = test: Experiment 3 foliar application to naturally growing shrubs; assay type: in vivo, Viburnum dilatatum Thunb.; conditions: after 3 months
# From the text: as §1, §2, §6, §7
# cockspar grass = test: Experiment 1 foliar application to naturally growing weeds; assay type: in vivo, Echinochloa Crusgalli P. Beauv.; conditions: for Reproduction-inhibiting effect: 2 months; for Killing index of Upperground parts: 21 days
# From the text: as §1, §2, §3, §4, §5
# oak = test: Experiment 3 foliar application to naturally growing shrubs; assay type: in vivo, Quercus serrata Thunb; conditions: after 3 months
# From the text: as §1, §2, §6, §7
# azumanezasa = test: Experiment 1 foliar application to naturally growing weeds; assay type: in vivo, Pleioblastus Chino Makino; conditions: for Reproduction-inhibiting effect: 4 months; for Killing index of Upperground parts: 21 days
# From the text: as §1, §2, §3, §4, §5
# Japanese prickly ash = test: Experiment 3 foliar application to naturally growing shrubs; assay type: in vivo, Xanthoxylum piperitum DC.; conditions: after 3 months
# From the text: as §1, §2, §6, §7
# torch azalea = test: as above; assay type: in vivo, Rhododendoron Kaempferi Planch.; conditions: after 3 months
# From the text: as §1, §2, §6, §7
# chigaya = test: Experiment 1 foliar application to naturally growing weeds; assay type: in vivo, Imperata cylindrica Beauv.; conditions: 4 months
# From the text: as §1, §2, §3, §4, §5
# yamazakura = test: Experiment 3 foliar application to naturally growing shrubs; assay type: in vivo, Prunus donarium Sieb. var. spontanae Makino; conditions: after 3 months
# From the text: as §1, §2, §6, §7
# miyakozasa = test: Experiment 2 foliar application in Japanese cypress afforested land; assay type: in vivo, Sasa nipponica Makino et Shibata; conditions: 0.25%
# Experimental: as §1, §8, §9, §10
# weeds and shrubs = conditions: background statement; cited from earlier work
# [1] = 0.05%, after 3 months, monosodium salt
# [2] = 0.05%, after 30 days, monosodium salt
smiles,measurement,setting,value
CP(=O)(O)CC[C@H](N)C(=O)O [L-2-Amino-4-methylphosphinobutanoic acid monosodium salt],Reproduction-inhibiting effect,"warunasubi; 0.05%, monosodium salt",+++
same,Reproduction-inhibiting effect,"warunasubi; 0.1%, monosodium salt",+
same,Reproduction-inhibiting effect,"warunasubi; 0.2%, monosodium salt",±
same,Killing index,kiichigo; [1],1.5
same,Reproduction-inhibiting,kiichigo; [1],++
same,Killing index,kiichigo; [2],3.5
same,Reproduction-inhibiting,"kiichigo; 0.1%, after 3 months",-
same,Reproduction-inhibiting,"kiichigo; 0.2%, after 3 months",-
same,Reproduction-inhibiting effect,"hedge bindweed; 0.05%, monosodium salt",+++
same,Reproduction-inhibiting effect,"hedge bindweed; 0.1%, monosodium salt",++
same,Reproduction-inhibiting effect,"hedge bindweed; 0.2%, monosodium salt",+
same,Reproduction-inhibiting effect,"purple nutsedge; 0.05%, monosodium salt",+++
same,Reproduction-inhibiting effect,"purple nutsedge; 0.1%, monosodium salt",+
same,Reproduction-inhibiting effect,"purple nutsedge; 0.2%, monosodium salt",±
same,Reproduction-inhibiting effect,"manna grass; 0.05%, monosodium salt",++
same,Reproduction-inhibiting effect,"manna grass; 0.1%, monosodium salt",±
same,Killing index of Upperground parts,"manna grass; 0.1%, monosodium salt",4.5
same,Reproduction-inhibiting effect,manna grass; 0.2%,-
same,Reproduction-inhibiting,"lace shrub; 0.05%, monosodium salt",++
same,Killing index,lace shrub; [2],3.5
same,Reproduction-inhibiting,lace shrub; 0.1%,-
same,Reproduction-inhibiting,lace shrub; 0.2%,-
same,Killing index,kumaichigo,4.5
same,Killing index,"eulalia; 0.125%, after 3 months, monosodium salt",4.5
same,Killing index,"eulalia; 0.125%, after 30 days, monosodium salt",3.5
same,Reproduction-inhibiting effect,"yabugarashi; 0.05%, monosodium salt",++
same,Reproduction-inhibiting effect,"yabugarashi; 0.1%, monosodium salt",+
same,Reproduction-inhibiting effect,"yabugarashi; 0.2%, monosodium salt",±
same,Reproduction-inhibiting effect,"water hyacinth; 0.1%, listed as L-AMPB monosodium salt, monosodium salt",±
same,Reproduction-inhibiting effect,water hyacinth; 0.2%,-
same,Reproduction-inhibiting effect,"white clover; 0.05%, monosodium salt",+++
same,Reproduction-inhibiting effect,"white clover; 0.1%, monosodium salt",+
same,Killing index of Upperground parts,"white clover; 0.1%, 21 days, monosodium salt",4.5
same,Reproduction-inhibiting effect,white clover; 0.2%,-
same,Reproduction-inhibiting,"Japanese bush cranberry; 0.05%, monosodium salt",+++
same,Reproduction-inhibiting,"Japanese bush cranberry; 0.1%, monosodium salt",++
same,Reproduction-inhibiting,Japanese bush cranberry; 0.2%,-
same,Reproduction-inhibiting effect,"cockspar grass; 0.05%, monosodium salt",++
same,Reproduction-inhibiting effect,"cockspar grass; 0.1%, monosodium salt",±
same,Killing index of Upperground parts,"cockspar grass; 0.1%, monosodium salt",4.5
same,Reproduction-inhibiting effect,cockspar grass; 0.2%,-
same,Reproduction-inhibiting,"oak; 0.05%, monosodium salt",++
same,Reproduction-inhibiting,oak; 0.1%,-
same,Reproduction-inhibiting,oak; 0.2%,-
same,Reproduction-inhibiting effect,"azumanezasa; 0.05%, monosodium salt",++
same,Killing index of Upperground parts,"azumanezasa; 0.05%, monosodium salt",2.5
same,Reproduction-inhibiting effect,azumanezasa; 0.1%,-
same,Killing index of Upperground parts,"azumanezasa; 0.1%, monosodium salt",4.5
same,Reproduction-inhibiting effect,azumanezasa; 0.2%,-
same,Reproduction-inhibiting,"Japanese prickly ash; 0.05%, monosodium salt",+++
same,Reproduction-inhibiting,"Japanese prickly ash; 0.1%, monosodium salt",+
same,Reproduction-inhibiting,Japanese prickly ash; 0.2%,-
same,Reproduction-inhibiting,"torch azalea; 0.05%, monosodium salt",+++
same,Reproduction-inhibiting,torch azalea; 0.1%,-
same,Reproduction-inhibiting,torch azalea; 0.2%,-
same,Reproduction-inhibiting effect,"chigaya; 0.05%, monosodium salt",++
same,Reproduction-inhibiting effect,chigaya; 0.1%,-
same,Reproduction-inhibiting effect,chigaya; 0.2%,-
same,Killing index,"yamazakura; 0.05%, monosodium salt",1.5
same,Reproduction-inhibiting,"yamazakura; 0.05%, monosodium salt",++
same,Reproduction-inhibiting,yamazakura; 0.1%,-
same,Reproduction-inhibiting,yamazakura; 0.2%,-
C[C@H](NC(=O)[C@H](C)NC(=O)[C@@H](N)CCP(C)(=O)O)C(=O)O [(L-2-Amino-4-methylphosphinobutyryl)-L-alanyl-L-alanine mono] [(L-2-Amino-4-methylphosphinobutyryl)-L-alanyl-L-alanine monodiethanolammonium salt],Reproduction-inhibiting effect,warunasubi; 0.05%,+++
same,Reproduction-inhibiting effect,warunasubi; 0.1%,+++
same,Reproduction-inhibiting effect,warunasubi; 0.2%,+
same,Reproduction-inhibiting,"kiichigo; 0.05%, after 3 months",+++
same,Reproduction-inhibiting,"kiichigo; 0.1%, after 3 months",+
same,Reproduction-inhibiting,"kiichigo; 0.2%, after 3 months",-
same,Reproduction-inhibiting effect,hedge bindweed; 0.05%,+++
same,Reproduction-inhibiting effect,hedge bindweed; 0.1%,+++
same,Reproduction-inhibiting effect,hedge bindweed; 0.2%,+++
same,Reproduction-inhibiting effect,purple nutsedge; 0.05%,+++
same,Reproduction-inhibiting effect,purple nutsedge; 0.1%,+++
same,Reproduction-inhibiting effect,purple nutsedge; 0.2%,+
same,Reproduction-inhibiting effect,manna grass; 0.05%,+++
same,Reproduction-inhibiting effect,manna grass; 0.1%,++
same,Killing index of Upperground parts,manna grass; 0.1%,3.5
same,Reproduction-inhibiting effect,manna grass; 0.2%,-
same,Killing index of Upperground parts,manna grass; 0.2%,4.5
same,Reproduction-inhibiting,lace shrub; 0.05%,+++
same,Reproduction-inhibiting,lace shrub; 0.1%,++
same,Reproduction-inhibiting,lace shrub; 0.2%,-
same,Killing index,"eulalia; 0.25%, after 3 months",4.5
same,Killing index,"eulalia; 0.25%, after 30 days",4.5
same,Reproduction-inhibiting effect,yabugarashi; 0.05%,+++
same,Reproduction-inhibiting effect,yabugarashi; 0.1%,++
same,Reproduction-inhibiting effect,yabugarashi; 0.2%,±
same,Reproduction-inhibiting effect,white clover; 0.05%,+++
same,Reproduction-inhibiting effect,white clover; 0.1%,+++
same,Reproduction-inhibiting effect,white clover; 0.2%,-
same,Reproduction-inhibiting,Japanese bush cranberry; 0.05%,+++
same,Reproduction-inhibiting,Japanese bush cranberry; 0.1%,+
same,Reproduction-inhibiting,Japanese bush cranberry; 0.2%,-
same,Reproduction-inhibiting effect,cockspar grass; 0.05%,+++
same,Reproduction-inhibiting effect,cockspar grass; 0.1%,++
same,Killing index of Upperground parts,cockspar grass; 0.1%,3.5
same,Reproduction-inhibiting effect,cockspar grass; 0.2%,-
same,Killing index of Upperground parts,cockspar grass; 0.2%,4.5
same,Reproduction-inhibiting,oak; 0.05%,+++
same,Reproduction-inhibiting,oak; 0.1%,++
same,Reproduction-inhibiting,oak; 0.2%,-
same,Reproduction-inhibiting effect,azumanezasa; 0.05%,+++
same,Reproduction-inhibiting effect,azumanezasa; 0.1%,+
same,Reproduction-inhibiting effect,azumanezasa; 0.2%,-
same,Killing index,miyakozasa; after 3 months,4.5
same,Killing index,miyakozasa; after 30 days,4.5
same,Reproduction-inhibiting,Japanese prickly ash; 0.05%,+++
same,Reproduction-inhibiting,Japanese prickly ash; 0.1%,+
same,Reproduction-inhibiting,Japanese prickly ash; 0.2%,-
same,Reproduction-inhibiting,torch azalea; 0.05%,+++
same,Reproduction-inhibiting,torch azalea; 0.1%,++
same,Reproduction-inhibiting,torch azalea; 0.2%,-
same,Reproduction-inhibiting effect,chigaya; 0.05%,+++
same,Reproduction-inhibiting effect,chigaya; 0.1%,++
same,Reproduction-inhibiting effect,chigaya; 0.2%,-
same,Reproduction-inhibiting,yamazakura; 0.05%,+++
same,Reproduction-inhibiting,yamazakura; 0.1%,++
same,Reproduction-inhibiting,yamazakura; 0.2%,-
"O=C([O-])C(F)(F)C(F)F.[Na+] [sodium 2,2,3,3-tetrafluoropropionate]",Reproduction-inhibiting,"kiichigo; 0.1%, after 3 months",+++
same,Reproduction-inhibiting,"kiichigo; 0.2%, after 3 months",+++
same,Reproduction-inhibiting,"kiichigo; 0.4%, after 3 months",+++
same,Reproduction-inhibiting,lace shrub; 0.1%,+++
same,Reproduction-inhibiting,lace shrub; 0.2%,+++
same,Reproduction-inhibiting,lace shrub; 0.4%,+++
same,Killing index,"eulalia; 0.5%, after 30 days",4.5
same,weeding effects of known herbicides in words,weeds and shrubs,effective for eulalia and bamboo grass; also recorded: not so effective for shrubs
same,Reproduction-inhibiting,Japanese bush cranberry; 0.1%,+++
same,Reproduction-inhibiting,Japanese bush cranberry; 0.2%,+++
same,Reproduction-inhibiting,Japanese bush cranberry; 0.4%,+++
same,Reproduction-inhibiting,oak; 0.1%,+++
same,Reproduction-inhibiting,oak; 0.2%,+++
same,Reproduction-inhibiting,oak; 0.4%,+++
same,Reproduction-inhibiting,Japanese prickly ash; 0.1%,+++
same,Reproduction-inhibiting,Japanese prickly ash; 0.2%,+++
same,Reproduction-inhibiting,Japanese prickly ash; 0.4%,+++
same,Reproduction-inhibiting,torch azalea; 0.1%,+++
same,Reproduction-inhibiting,torch azalea; 0.2%,+++
same,Reproduction-inhibiting,torch azalea; 0.4%,+++
same,Reproduction-inhibiting,yamazakura; 0.1%,+++
same,Reproduction-inhibiting,yamazakura; 0.2%,+++
same,Reproduction-inhibiting,yamazakura; 0.4%,+++

# Reference: US4226610A, “Herbicidal compounds, preparation thereof and herbicides containing the same” (Meiji Selka Kaisha, Ltd., priority 1978, dated 1980)
